This is an account of results in patent US8349824B2, “Triazolopyridine compounds” (Hoffmann-La Roche Inc., priority 2010, dated 2013).

Structures are written as SMILES.

The assay deals with T1, human PDE10A full length (Homo sapiens, UniProt Q9Y233).
T1 construct: purchased Enzo Life Science, Lausen, Switzerland SE-534
T1 sequence (Q9Y233 1-779 isoform Q9Y233-1): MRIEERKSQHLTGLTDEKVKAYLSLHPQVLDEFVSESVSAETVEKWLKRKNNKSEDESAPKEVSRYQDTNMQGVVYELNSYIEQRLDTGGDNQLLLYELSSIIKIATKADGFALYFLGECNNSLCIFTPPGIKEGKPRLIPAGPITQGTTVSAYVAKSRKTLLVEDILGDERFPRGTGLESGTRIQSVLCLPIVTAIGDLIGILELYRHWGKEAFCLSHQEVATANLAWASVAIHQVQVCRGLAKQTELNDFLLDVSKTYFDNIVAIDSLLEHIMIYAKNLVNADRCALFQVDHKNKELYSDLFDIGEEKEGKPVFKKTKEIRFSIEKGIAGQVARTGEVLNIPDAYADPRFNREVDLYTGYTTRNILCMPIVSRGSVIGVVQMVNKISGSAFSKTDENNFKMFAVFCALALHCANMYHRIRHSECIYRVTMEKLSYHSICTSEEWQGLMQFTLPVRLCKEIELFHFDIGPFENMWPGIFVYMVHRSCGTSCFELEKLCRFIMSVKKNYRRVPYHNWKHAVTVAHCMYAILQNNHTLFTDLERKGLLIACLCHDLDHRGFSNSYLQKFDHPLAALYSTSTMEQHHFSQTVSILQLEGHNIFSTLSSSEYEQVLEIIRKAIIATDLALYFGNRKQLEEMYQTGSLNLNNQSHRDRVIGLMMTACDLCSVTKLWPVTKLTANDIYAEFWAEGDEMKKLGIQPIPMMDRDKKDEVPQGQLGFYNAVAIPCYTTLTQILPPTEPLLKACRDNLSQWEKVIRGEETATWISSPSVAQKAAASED
The experiment in a line: PDE10A Scintillation Proximity Assay (SPA), human PDE10A full length assay. Conditions: 50 nM cGMP + 50 nM [3H]-cGMP, 20 minutes at room temperature, read-out: PDE10A inhibition IC50. The format is biochemical. As for the experimental part: The following test was carried out in order to determine the activity of the compounds of the present invention. PDE10 activity of the compounds of the present invention was determined using a Scintillation Proximity Assay (SPA)-based method similar to the one previously described (Fawcett, L. et al., Proc Natl Acad Sci USA (2000) 97(7):3702-3707).
The human PDE10A full length assay was performed in 96-well micro titer plates. The reaction mixture of 50 μl contained 20 mM HEPES pH=7.5/10 mM MgCl2/0.05 mg/ml BSA (Sigma cat. #A-7906), 50 nM cGMP (Sigma, cat. #G6129) and 50 nM [^3H]-cGMP (GE Healthcare, cat. #TRK392 S.A. 13.2Ci/mmol), 3.75 ng/well PDE10A enzyme (Enzo Life Science, Lausen, Switzerland cat #SE-534) with or without a specific test compound. A range of concentrations of the potential inhibitor was used to generate data for calculating the concentration of inhibitor resulting in 50% of the effect (e.g. IC50, the concentration of the competitor inhibiting PDE10A activity by 50%). Non-specific activity was tested without the enzyme. The reaction was initiated by the addition of the substrate solution (cGMP and [^3H]-cGMP) and allowed to progress for 20 minutes at room temperature. The reaction was terminated by adding 25 μl of YSi-SPA scintillation beads (GE Healthcare, cat. #RPNQ0150) in 18 mM zinc sulphate solution (stop reagent). After 1 h under shaking, the plate was centrifuged one minute at 170 g to allow beads to settle. Afterwards, radioactive counts were measured on a Perkin Elmer TopCount Scintillation plate reader.
(SPA uses beads or plates that emit light when radiolabelled molecules are held near them.)
The term IC50 denotes the concentration that gives 50% inhibition. `CCN(C)C(=O)c1cnn(C)c1C(=O)Nc1ccn2nc(-c3cccc(OCF)c3)nc2c1` [Example 84, 2-Methyl-2H-pyrazole-3,4-dicarboxylic acid 4-(ethyl-methyl-amide)3-{[2-(3-fluoromethoxy-phenyl)-[1,2,4]triazolo[1,5-a]pyridin-7-yl]-amide}]: the IC50 amounted to 0.54 nM.
As for `CN(C)C(=O)c1cnn(C)c1C(=O)Nc1ccn2nc(-c3cccc(OCCF)c3)nc2c1` [Example 85, 2-Methyl-2H-pyrazole-3,4-dicarboxylic acid 4-dimethylamide 3-({2-[3-(2-fluoro-ethoxy)-phenyl]-[1,2,4]triazolo[1,5-a]pyridin-7-yl}-amide)], the figure is 0.73 nM; as for `CN(C)C(=O)c1cnn(C)c1C(=O)Nc1ccn2nc(-c3cccc(OCF)c3)nc2c1` [Example 86, 2-Methyl-2H-pyrazole-3,4-dicarboxylic acid 4-dimethylamide 3-{[2-(3-fluoromethoxy-phenyl)-[1,2,4]triazolo[1,5-a]pyridin-7-yl]-amide}], 0.6 nM; as for `COCCN(C)C(=O)c1cnn(C)c1C(=O)Nc1ccn2nc(-c3cccc(O)c3)nc2c1` [Example 87, 2-Methyl-2H-pyrazole-3,4-dicarboxylic acid 3-{[2-(3-hydroxy-phenyl)-[1,2,4]triazolo[1,5-a]pyridin-7-yl]-amide} 4-[(2-methoxy-ethyl)-methyl-amide]], 0.43 nM.
For `COCCN(C)C(=O)c1cnn(C)c1C(=O)Nc1ccn2nc(-c3cccc(OCCF)c3)nc2c1` [Example 88, 2-Methyl-2H-pyrazole-3,4-dicarboxylic acid 3-({2-[3-(2-fluoro-ethoxy)-phenyl]-[1,2,4]triazolo[1,5-a]pyridin-7-yl}-amide)4-[(2-methoxy-ethyl)-methyl-amide]], the 50% inhibitory concentration (IC50) amounted to 0.42 nM.
As for `COCCN(C)C(=O)c1cnn(C)c1C(=O)Nc1ccn2nc(-c3cccc(OCF)c3)nc2c1` [Example 89, 2-Methyl-2H-pyrazole-3,4-dicarboxylic acid 3-{[2-(3-fluoromethoxy-phenyl)-[1,2,4]triazolo[1,5-a]pyridin-7-yl]-amide} 4-[(2-methoxy-ethyl)-methyl-amide]], the 50% inhibitory concentration (IC50) came out at 0.59 nM.
With `Cn1ncc(C(=O)N2CCC2)c1C(=O)Nc1ccn2nc(-c3cccc(OCCF)c3)nc2c1` [Example 90, 4-(Azetidine-1-carbonyl)-2-methyl-2H-pyrazole-3-carboxylic acid {2-[3-(2-fluoro-ethoxy)-phenyl]-[1,2,4]triazolo[1,5-a]pyridin-7-yl}-amide], the IC50 amounted to 1.02 nM.
`Cn1ncc(C(=O)N2CCC2)c1C(=O)Nc1ccn2nc(-c3cccc(OCF)c3)nc2c1` [Example 91, 4-(Azetidine-1-carbonyl)-2-methyl-2H-pyrazole-3-carboxylic acid [2-(3-fluoromethoxy-phenyl)-[1,2,4]triazolo[1,5-a]pyridin-7-yl]-amide]: the 50% inhibitory concentration (IC50) was 0.86 nM.
In the case of `CN(CCO)C(=O)c1cnn(C)c1C(=O)Nc1ccn2nc(-c3ccccc3)nc2c1` [Example 92, 2-Methyl-2H-pyrazole-3,4-dicarboxylic acid 4-[(2-hydroxy-ethyl)-methyl-amide]3-[(2-phenyl-[1,2,4]triazolo[1,5-a]pyridin-7-yl)-amide]], the concentration for half-maximal inhibition (IC50) was found to be 0.98 nM.
In the case of `COC(=O)CN(C)C(=O)c1cnn(C)c1C(=O)Nc1ccn2nc(-c3ccccc3)nc2c1` [Example 93, {Methyl-[1-methyl-5-(2-phenyl-[1,2,4]triazolo[1,5-a]pyridin-7-ylcarbamoyl)-1H-pyrazole-4-carbonyl]-amino}-acetic acid methyl ester], the IC50 was 2.16 nM.
The value for `CN(CCO)C(=O)c1cnn(C)c1C(=O)Nc1ccn2nc(N3CCOCC3)nc2c1` [Example 94, 2-Methyl-2H-pyrazole-3,4-dicarboxylic acid 4-[(2-hydroxy-ethyl)-methyl-amide]3-[(2-morpholin-4-yl-[1,2,4]triazolo[1,5-a]pyridin-7-yl)-amide]] was 20.4 nM.
With `COC(=O)CN(C)C(=O)c1cnn(C)c1C(=O)Nc1ccn2nc(N3CCOCC3)nc2c1` [Example 95, {Methyl-[1-methyl-5-(2-morpholin-4-yl-[1,2,4]triazolo[1,5-a]pyridin-7-ylcarbamoyl)-1H-pyrazole-4-carbonyl]-amino}-acetic acid methyl ester], the half-inhibitory concentration (IC50) was 50.4 nM.
As for `Cn1ncc(C(=O)NCCF)c1C(=O)Nc1ccn2nc(-c3ccccc3)nc2c1` [Example 96, 2-Methyl-2H-pyrazole-3,4-dicarboxylic acid 4-[(2-fluoro-ethyl)-amide]3-[(2-phenyl[1,2,4]triazolo[1,5-a]pyridin-7-yl)-amide]], the figure is 2.12 nM; as for `COc1ccccc1-c1nc2cc(NC(=O)c3c(C(=O)N(C)C)cnn3C)ccn2n1` [Example 97, 2-Methyl-2H-pyrazole-3,4-dicarboxylic acid 4-dimethylamide 3-{[2-(2-methoxy-phenyl)-[1,2,4]triazolo[1,5-a]pyridin-7-yl]-amide}], 0.31 nM; as for `CCN(C)C(=O)c1cnn(C)c1C(=O)Nc1ccn2nc(-c3ccccc3OC)nc2c1` [Example 98, 2-Methyl-2H-pyrazole-3,4-dicarboxylic acid 4-(ethyl-methyl-amide)3-{[2-(2-methoxy-phenyl)-[1,2,4]triazolo[1,5-a]pyridin-7-yl]-amide}], 0.67 nM.
As for `COCCN(C)C(=O)c1cnn(C)c1C(=O)Nc1ccn2nc(-c3ccccc3OC)nc2c1` [Example 99, 2-Methyl-2H-pyrazole-3,4-dicarboxylic acid 4-[(2-methoxy-ethyl)-methyl-amide]3-{[2-(2-methoxy-phenyl)-[1,2,4]triazolo[1,5-a]pyridin-7-yl]-amide}], the figure is 0.74 nM; as for `CCN(C)C(=O)c1cnn(C)c1C(=O)Nc1ccn2nc(-c3ccccc3OCCF)nc2c1` [Example 101, 2-Methyl-2H-pyrazole-3,4-dicarboxylic acid 4-(ethyl-methyl-amide)3-({2-[2-(2-fluoro-ethoxy)-phenyl]-[1,2,4]triazolo[1,5-a]pyridin-7-yl}-amide)], 0.65 nM.
As for `CN1CCN(C(=O)c2cnn(C)c2C(=O)Nc2ccn3nc(-c4cccc(F)c4)nc3c2)CC1` [Example 108, 2-Methyl-4-(4-methyl-piperazine-1-carbonyl)-2H-pyrazole-3-carboxylic acid [2-(3-fluoro-phenyl)-[1,2,4]triazolo[1,5-a]pyridin-7-yl]-amide], the concentration for half-maximal inhibition (IC50) came to 15.6 nM.
As for `Cn1ncc(C(=O)N2CCC2)c1C(=O)Nc1ccn2nc(-c3cccnc3F)nc2c1` [Example 110, 4-(Azetidine-1-carbonyl)-2-methyl-2H-pyrazole-3-carboxylic acid [2-(2-fluoro-pyridin-3-yl)-[1,2,4]triazolo[1,5-a]pyridin-7-yl]-amide], the figure is 4.66 nM.
The value for `Cn1ncc(C(=O)NC2CC2)c1C(=O)Nc1ccn2nc(N3CCOCC3)nc2c1` [Example 113, 2-Methyl-2H-pyrazole-3,4-dicarboxylic acid 4-cyclopropylamide 3-[(2-morpholin-4-yl-[1,2,4]triazolo[1,5-a]pyridin-7-yl)-amide]] was 19.1 nM.
As for `CN(CCF)c1nc2cc(NC(=O)c3c(C(=O)N4CCCC4)cnn3C)ccn2n1` [Example 115, 2-Methyl-4-(pyrrolidine-1-carbonyl)-2H-pyrazole-3-carboxylic acid {2-[(2-fluoro-ethyl)-methyl-amino]-[1,2,4]triazolo[1,5-a]pyridin-7-yl}-amide], the IC50 amounted to 2.29 nM.
Consider `CCN(C)C(=O)c1cnn(C)c1C(=O)Nc1ccn2nc(-c3cccnc3)nc2c1` [Example 116, 2-Methyl-2H-pyrazole-3,4-dicarboxylic acid 4-(ethyl-methyl-amide)3-[(2-pyridin-3-yl-[1,2,4]triazolo[1,5-a]pyridin-7-yl)-amide]], for which the IC50 turned out to be 1.11 nM.
For the compound `Cn1ncc(C(=O)N2CCOCC2)c1C(=O)Nc1ccn2nc(-c3cccc(F)n3)nc2c1` [Example 121, 2-Methyl-4-(morpholine-4-carbonyl)-2H-pyrazole-3-carboxylic acid [2-(6-fluoro-pyridin-2-yl)-[1,2,4]triazolo[1,5-a]pyridin-7-yl]-amide], the half-inhibitory concentration (IC50) amounted to 5.06 nM.
In the case of `Cn1ncc(C(=O)N2CC3(COC3)C2)c1C(=O)Nc1ccn2nc(N3CCCC3)nc2c1` [Example 122, 2-Methyl-4-(2-oxa-6-aza-spiro[3.3]heptane-6-carbonyl)-2H-pyrazole-3-carboxylic acid (2-pyrrolidin-1-yl-[1,2,4]triazolo[1,5-a]pyridin-7-yl)-amide], the IC50 was found to be 6.21 nM.
As for `CN(c1nc2cc(NC(=O)c3c(C(=O)O)cnn3C)ccn2n1)C1CC1` [Example 125, 5-[2-(Cyclopropyl-methyl-amino)-[1,2,4]triazolo[1,5-a]pyridin-7-ylcarbamoyl]-1-methyl-1H-pyrazole-4-carboxylic acid], the figure is 54 nM; as for `CN(C(=O)c1cnn(C)c1C(=O)Nc1ccn2nc(N(C)C3CC3)nc2c1)C1CC1` [Example 126, 2-Methyl-2H-pyrazole-3,4-dicarboxylic acid 4-(cyclopropyl-methyl-amide)3-{[2-(cyclopropyl-methyl-amino)-[1,2,4]triazolo[1,5-a]pyridin-7-yl]-amide}], 0.49 nM.
